Patent EP1203770A1 (priority 1992, dated 1994)
pKi: −log10 of the molar value. Where “and” joins values, the source holds several entries; their conditions need not be identical. Equal entries are not always repeated. Where two headings read alike, the source gives them in different places.

Target: T1, HIV-1 protease (Human immunodeficiency virus type 1 group M subtype B, UniProt P04585)
T1 construct: The protease (or proteinase), consisting of only 99 amino acids, is among the smallest enzymes known
Experiment: In vitro HIV protease inhibitory assay (HIV Protease FITC Assay)
Assay type: biochemical
Conditions: for inhibition at 0.41 µM: HIV-1 Dose 0.410 uM; for inhibition at 0.41 µM / inhibition at 1.23 µM / inhibition at 3.7 µM / inhibition at 11 µM / inhibition at 33 µM / inhibition at 100 µM / inhibition at 0.123 µM / inhibition at 0.37 µM / inhibition at 1.1 µM / inhibition at 3.3 µM / inhibition at 10 µM / inhibition at 30 µM / inhibition at 1 µM: read-out: HIV-1 Protease % Inhib; for inhibition at 1.23 µM: HIV-1 Dose 1.230 uM; for inhibition at 3.7 µM: HIV-1 Dose 3.700 uM; for inhibition at 11 µM: HIV-1 Dose 11.000 uM; for inhibition at 33 µM: HIV-1 Dose 33.000 uM
How it was run: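 Percent inhibition was read as fluorescence after avidin-bead capture and filtration separated FITC cleavage product from biotinylated substrate. Enzyme and substrate reacted 1 h, RT, dark, at pH 5.5 (0.1 M sodium acetate, 1.0 M NaCl, 0.05% NP-40).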

Row | Compound | inhibition at 0.41 µM [%] | inhibition at 1.23 µM [%] | inhibition at 3.7 µM [%] | inhibition at 11 µM [%] | inhibition at 33 µM [%] | inhibition at 100 µM (HIV-1 Dose 100.000 uM) [%] | inhibition at 0.123 µM (HIV-1 Dose 0.123 uM) [%] | inhibition at 0.37 µM (HIV-1 Dose 0.370 uM) [%] | inhibition at 1.1 µM (HIV-1 Dose 1.100 uM) [%] | inhibition at 3.3 µM (HIV-1 Dose 3.300 uM) [%] | inhibition at 10 µM (HIV-1 Dose 10.000 uM) [%] | inhibition at 30 µM (HIV-1 Dose 30.000 uM) [%] | pKi (read-out: HIV-1 FITC Ki) | other results
1 | O=c1oc(CCc2ccc3ccccc3n2)cc(O)c1C(c1ccccc1)C1CC1 (stereo not drawn) [Example 51, 3-(Cyclopropyl-phenyl-methyl)-4-hydroxy-6-(2-quinolin-2-yl-ethyl)-pyran-2-one] | < 10 | < 10 | 23.4 | 50.7 | 70 | 83.7 |  |  |  |  |  |  |  | 
2 | CCC(CC(=O)N1CCOCC1)c1cc(O)c(C(c2ccccc2)C2CC2)c(=O)o1 (stereo not drawn) [Example 69, 3-(Cyclopropyl-phenyl-methyl)-6-(1-ethyl-3-morpholin-4-yl-3-oxo-propyl)-4-hydroxy-pyran-2-one] |  |  |  |  |  |  | < 10 | < 10 | 13.9 | 42.1 | 75.2 | 98.5 |  | 
3 | CCC(c1cc(O)c(C(c2ccccc2)C2CC2)c(=O)o1)C(O)c1ccccc1 (stereo not drawn) [Example 146, 3-(α-cyclopropylbenzyl)-4-hydroxy-6-(α-ethyl-β-hydroxyphenethyl)-2H-pyran-2-one] |  |  |  |  |  |  | 36.4 | 73.6 | 82.7 | 87.7 | 91.2 | 95.2 |  | 
4 | CCC(Cc1ccccc1)c1cc(O)c(C(c2cccc(NC(=O)NCc3ccccc3)c2)C2CC2)c(=O)o1 (stereo not drawn) [Example 213, 3-(α-Cyclopropyl-meta-[(benzylaminocarbonyl)amino]benzyl)-6-(α-ethylphenethyl)-4-hydroxy-2H-pyran-2-one] |  |  |  |  |  |  | < 10 | 12.1 | 30 | 55.4 | 83.7 | 85.8 |  | 
5 | CCC(Cc1ccccc1)c1cc(O)c(C(c2cccc(NC(=O)Cc3cccnc3)c2)C2CC2)c(=O)o1 (stereo not drawn) [Example 248, 3-(α-Cyclopropyl-meta-(3-pyridylacetylamino)benzyl)-6-(α-ethylphenethyl)-4-hydroxy-2H-pyran-2-one] |  |  |  |  |  |  | < 10 | 31.6 | 63.7 | 86.5 | 101 | 99.2 | 7.21 | 
6 | O=c1oc(CCCCN2CCOCC2)cc(O)c1C(c1ccccc1)C1CC1 (stereo not drawn) [Example 48, 3-(Cyclopropyl-phenyl-methyl)-4-hydroxy-6-(4-morpholin-4-yl-butyl)-pyran-2-one] | < 10 | < 10 | < 10 | < 10 | 31.3 | 61.6 |  |  |  |  |  |  |  | 
7 | CCC(C1=C(O)CC(CCc2ccccc2)(CC(C)C)OC1=O)c1ccccc1 (stereo not drawn) [Example 234, 2H-Pyran-2-one, 5,6-dihydro-4-hydroxy-6-(2-methylpropyl)-6-(2-phenylethyl)-3-(1-phenylpropyl)-] |  |  |  |  |  |  | < 10 | 33.4 | 61.6 | 81.1 | 83 | 71.1 | 7.40 | 
8 | CCC(c1ccccc1)c1c(O)c(Br)c(CCc2ccccc2)oc1=O (stereo not drawn) [Example 105, 5-Bromo-4-hydroxy-6-phenylethyl-3(1-phenyl-propyl)-pyran-2-one] | 14.3 | 38.9 | 75.3 | 103 | 110 | 108 |  |  |  |  |  |  | 6.34 | 
9 | CC(C)(C)c1nc(CCc2cc(O)c(C(c3ccccc3)C3CC3)c(=O)o2)no1 (stereo not drawn) [Example 44, 6-(2-(5-Tert-butyl-(1,2,4)oxadiazol-3-yl)-ethyl)-3-(cyclopropyl-phenyl-methyl)-4-hydroxy-pyran-2-one] | < 10 | 24.9 | 57.3 | 84.3 | 106 | 114 |  |  |  |  |  |  | 5.74 | 
10 | Dimethyl 3-[(4-hydroxy-2-oxo-6-phenyl-2H-1-pyran-3-yl)(3-nitrophenyl)methyl] -1,3-propandioate [Example 29] |  |  |  |  |  |  |  |  |  |  |  |  |  | HIV-1 Protease % Inhib (HIV-1 Dose 1.000 uM): <10%; HIV-1 Protease % Inhib (HIV-1 Dose 10.000 uM): <10%; HIV-1 Protease % Inhib (HIV-1 Dose 100.000 uM): 32.16%
11 | CCC(Cc1ccccc1)c1cc(O)c(C(c2cccc(NS(=O)(=O)c3ccc(C#N)cc3)c2)C2CC2)c(=O)o1 (stereo not drawn) [Example 184, 3-(α-Cyclopropyl-meta-(4-cyanophenylsulfonylamino)benzyl)-6-(α-ethylphenethyl)-4-hydroxy-2H-pyran-2-one] |  |  |  |  |  |  | 65 | 87 | 94.5 | 99 | 102 | 102 | 8.24 | 
12 | O=c1oc(C(Cc2ccccc2)Cc2ccccn2)cc(O)c1C(c1ccccc1)C1CC1 (stereo not drawn) [Example 46, 3-(Cyclopropyl-phenyl-methyl)-4-hydroxy-6-(2-phenyl-1-pyridin-2-ylmethyl-ethyl)-pyran-2-one] | 29.2 | 65 | 91.6 | 94.2 | 103 | 115 |  |  |  |  |  |  | 6.50 | 
13 | CCC(C1=C(O)CC(Cc2ccccc2)(c2ccccc2)OC1=O)c1ccccc1 (stereo not drawn) [Example 169, 5,6-Dihydro-4-hydroxy-6-phenyl-6-(phenylmethyl)-3-(1-phenylpropyl)-2H-pyran-2-one] |  |  |  |  |  |  |  |  |  |  |  |  |  | inhibition at 0.123 µM: < 10%; inhibition at 0.37 µM: < 10%; inhibition at 1.1 µM: < 10%; inhibition at 3.3 µM: < 10%; inhibition at 10 µM: 33.2%; inhibition at 30 µM: 54.8%
14 | CCC(Cc1ccc(Cl)s1)c1cc(O)c(C(c2ccccc2)C2CC2)c(=O)o1 (stereo not drawn) [Example 52, 6-(1-(5-Chloro-thiophen-2-ylmethyl)-propyl)-3-(cyclopropyl-phenyl-methyl)-4-hydroxy-pyran-2-one] | 66.6 | 86.2 | 106 | 112 | 116 | 113 |  |  |  |  |  |  | 7.37 | 
15 | CCC(CCC1CCCCC1)c1cc(O)c(C(c2ccccc2)C2CC2)c(=O)o1 (stereo not drawn) [Example 95, 6-(3-Cyclohexyl-1-ethyl-propyl)-3-(cyclopropyl-phenyl-methyl)-4-hydroxy-pyran-2-one] |  |  |  |  |  | 41 |  |  |  |  | 33.6 |  |  | inhibition at 1 µM (HIV-1 Dose 1.000 uM): < 10%
16 | CCC(Cc1ccccc1)c1cc(O)c(C(c2cccc(NS(=O)(=O)c3cc(Cl)ccc3Cl)c2)C2CC2)c(=O)o1 (stereo not drawn) [Example 182, 3-(α-Cyclopropyl-meta-(2,5-dichlorophenylsulfonylamino)benzyl)-6-(α-ethylphenethyl)-4-hydroxy-2H-pyran-2-one] |  |  |  |  |  |  | < 10 | 15 | 45.7 | 71.9 | 94.9 | 96.5 |  | 
17 | O=c1oc(CCCCl)cc(O)c1C(c1ccccc1)C1CC1 (stereo not drawn) [Example 53, 6-(3-Chloro-propyl)3-(cyclopropyl-phenyl-methyl)-4-hydroxy-pyran-2-one] | 19.4 | 47.5 | 86 | 102 | 117 | 120 |  |  |  |  |  |  | 6.66 | 
18 | CCC(Cc1ccc(Cl)cc1)c1cc(O)c(C(c2ccccc2)C2CC2)c(=O)o1 (stereo not drawn) [Example 155, 3-(α-cyclopropylbenzyl)-4-hydroxy-6-(α-ethyl-p-chlorophenethyl)-2H-pyran-2-one] |  |  |  |  |  | 111 | 27.6 | 46 | 79.9 | 92.8 | 97.2 | 93.5 | 7.18 | 
19 | CCC(Cc1cccc(Br)c1)c1cc(O)c(C(c2ccccc2)C2CC2)c(=O)o1 (stereo not drawn) [Example 159, 3-(α-cyclopropylbenzyl)-4-hydroxy-6-(α-ethyl-m-bromophenethyl)-2H-pyran-2-one] |  |  |  |  |  |  | < 10 | 20.6 | 56.4 | 76.2 | 92.3 | 95.1 | 6.68 | 
20 | CCC(c1ccccc1)C1C(=O)CC(CC)(c2ccccc2)OC1=O (stereo not drawn) [Example 26, 6-Ethyl-3-(α-ethylbenzyl)-6-phenyl-tetrahydropyran-2,4-dione] |  |  |  |  |  |  |  |  |  |  |  |  |  | pKi: 6.79; inhibition at 1 µM: 38.7%; inhibition at 10 µM: 78.8%; inhibition at 100 µM: 86.3%
21 | CCCC1(CCCc2ccccc2)CC(O)=C(C(C=Cc2ccccc2)c2ccccc2)C(=O)O1 (stereo not drawn) [Example 238, 2H-Pyran-2-one, 5,6-dihydro-4-hydroxy-3-(1,3-diphenyl-2-propenyl)-6-(3-phenylpropyl)-6-propyl-] |  |  |  |  |  |  | < 10 | 20.5 | 52.8 | 75.6 | 81 | 87.1 | 6.79 | 
22 | CCC(CCCc1ccccc1)c1cc(O)c(C(c2ccccc2)C2CC2)c(=O)o1 (stereo not drawn) [Example 93, 3-(Cyclopropyl-phenyl-methyl)-6-(1-ethyl-4-phenyl-butyl)-4-hydroxy-pyran-2-one] |  |  |  |  |  | 79.3 |  |  |  |  | 72.6 |  |  | HIV-1 Protease % Inhib (HIV-1 Dose 10.000 uM): 67.65% and 71.27%; HIV-1 Protease % Inhib (HIV-1 Dose 100.000 uM): 59.48% and 67.68%; HIV-1 Protease % Inhib (dose not given): <10%
